Results: patent publication US12539292B2, “BRM targeting compounds and associated methods of use” (Arvinas Operations, Inc., priority 2018, dated 2026)
Where two headings read alike, the source gives them in different places.

Target: T1, BRM (Homo sapiens, UniProt P51531)
T1 construct: In-Cell Western Screen of BRM Degradation in SW1573 Cells; endogenous in cells; host or cells: SW1573
Assay: In-cell Western screen of BRM degradation in SW1573 cells (Dmax and DC50)
Type: cell-based
How it was run: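 BRM levels were read by LI-COR in-cell Western after two-channel (800/680 nm) immunostaining of fixed, Triton-permeabilised SW1573 cells.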

[1] = SW1573, % degraded, when tested at the top concentration of between 0.3 and 10 μM, read-out: BRM Dmax (%)
[2] = target protein degradation, read-out: BRM DC50
[3] = BRM degradation, SW1573 cells, read-out: DC50
[4] = BRM degradation, SW1573 cells, Table 2D, read-out: **Dmax (%) (% degraded)
[5] = BRM degradation, SW1573 cells, Table 2D, read-out: *DC50
[6] = BRM degradation, SW1573 cells, tested at the top concentration of between 0.3 and 10 μM, read-out: Dmax (%) (% degraded)

T1 sequence (P51531 whole entry): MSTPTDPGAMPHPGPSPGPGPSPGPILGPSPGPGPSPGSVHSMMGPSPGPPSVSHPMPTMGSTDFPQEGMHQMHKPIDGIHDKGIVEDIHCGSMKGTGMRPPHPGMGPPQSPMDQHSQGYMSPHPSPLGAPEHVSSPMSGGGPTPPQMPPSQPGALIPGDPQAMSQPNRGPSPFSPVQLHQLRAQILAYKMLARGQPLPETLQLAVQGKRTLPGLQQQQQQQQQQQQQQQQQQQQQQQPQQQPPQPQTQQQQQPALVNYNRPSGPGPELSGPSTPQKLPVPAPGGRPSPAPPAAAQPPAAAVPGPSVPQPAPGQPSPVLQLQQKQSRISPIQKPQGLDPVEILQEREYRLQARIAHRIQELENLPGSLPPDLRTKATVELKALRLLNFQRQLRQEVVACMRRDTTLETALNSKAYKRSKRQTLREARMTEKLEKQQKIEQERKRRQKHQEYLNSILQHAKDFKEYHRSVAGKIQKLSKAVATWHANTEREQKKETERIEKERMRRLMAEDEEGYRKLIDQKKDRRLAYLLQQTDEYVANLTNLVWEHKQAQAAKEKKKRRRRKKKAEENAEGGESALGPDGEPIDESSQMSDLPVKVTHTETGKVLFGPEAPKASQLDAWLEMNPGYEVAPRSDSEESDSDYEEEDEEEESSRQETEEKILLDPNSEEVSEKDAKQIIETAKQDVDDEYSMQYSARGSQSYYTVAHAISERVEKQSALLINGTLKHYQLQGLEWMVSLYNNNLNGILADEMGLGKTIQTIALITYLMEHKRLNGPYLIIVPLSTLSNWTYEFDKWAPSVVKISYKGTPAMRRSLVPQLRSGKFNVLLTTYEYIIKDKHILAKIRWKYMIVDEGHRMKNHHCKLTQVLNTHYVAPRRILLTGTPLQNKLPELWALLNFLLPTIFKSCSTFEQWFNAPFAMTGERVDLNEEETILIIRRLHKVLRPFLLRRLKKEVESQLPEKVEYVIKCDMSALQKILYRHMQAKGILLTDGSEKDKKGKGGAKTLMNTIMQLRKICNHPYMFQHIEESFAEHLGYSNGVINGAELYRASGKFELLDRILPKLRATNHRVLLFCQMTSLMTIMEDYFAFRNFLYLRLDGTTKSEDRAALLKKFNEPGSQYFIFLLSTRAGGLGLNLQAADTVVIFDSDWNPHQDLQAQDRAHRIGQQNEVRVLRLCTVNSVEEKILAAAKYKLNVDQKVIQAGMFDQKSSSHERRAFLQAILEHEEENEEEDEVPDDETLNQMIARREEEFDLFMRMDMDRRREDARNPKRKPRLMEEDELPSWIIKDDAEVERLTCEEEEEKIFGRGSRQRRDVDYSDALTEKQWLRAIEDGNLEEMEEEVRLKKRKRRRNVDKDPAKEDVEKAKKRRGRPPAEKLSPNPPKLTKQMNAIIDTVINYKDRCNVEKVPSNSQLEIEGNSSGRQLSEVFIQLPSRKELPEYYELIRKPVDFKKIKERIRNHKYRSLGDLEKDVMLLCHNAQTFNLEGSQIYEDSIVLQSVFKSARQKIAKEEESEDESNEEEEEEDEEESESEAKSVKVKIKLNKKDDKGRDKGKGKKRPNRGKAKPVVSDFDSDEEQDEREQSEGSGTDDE

With `Cc1ncsc1-c1ccc([C@H](C)NC(=O)[C@@H]2C[C@@H](O)CN2C(=O)[C@@H](c2cc(OCC#CC34CC(CN5CC(Oc6cc(N7C8CCC7CN(c7cc(-c9ccccc9O)nnc7N)C8)ccn6)C5)(C3)C4)no2)C(C)C)cc1` [compound 383, (2S,4R)-1-((2R)-2-(3-((3-(3-((3-((4-(3-(3-amino-6-(2-hydroxyphenyl)pyridazin-4-yl)-3,8-diazabicyclo[3.2.1]octan-8-yl)pyridin-2-yl)oxy)azetidin-1-yl)methyl)bicyclo[1.1.1]pentan-1-yl)prop-2-yn-1-yl)oxy)isoxazol-5-yl)-3-methylbutanoyl)-4-hydroxy-N-((S)-1-(4-(4-methylthiazol-5-yl)phenyl)ethyl)pyrrolidine-2-carboxamide] the Dmax [1] was over 75% and the DC50 [2] was over 30 nM.
With `Cc1ncsc1-c1ccc([C@H](C)NC(=O)[C@@H]2C[C@@H](O)CN2C(=O)[C@H](c2cc(N3CCC4(CC3)CN(CC3CCN(C[C@H]5C[C@H](Oc6cc(N7C8CCC7CN(c7cc(-c9ccccc9O)nnc7N)C8)ccn6)C5)CC3)C4)no2)C(C)C)cc1` [compound 694, (2S,4R)-1-((2S)-2-(3-(2-((1-(((1r,3r)-3-((4-(3-(3-amino-6-(2-hydroxyphenyl)pyridazin-4-yl)-3,8-diazabicyclo[3.2.1]octan-8-yl)pyridin-2-yl)oxy)cyclobutyl)methyl)piperidin-4-yl)methyl)-2,7-diazaspiro[3.5]nonan-7-yl)isoxazol-5-yl)-3-methylbutanoyl)-4-hydroxy-N-((S)-1-(4-(4-methylthiazol-5-yl)phenyl)ethyl)pyrrolidine-2-carboxamide] the DC50 [3] was over 30 nM.
In the case of `Cc1ncsc1-c1ccc(CNC(=O)[C@@H]2C[C@@H](O)CN2C(=O)[C@H](c2cc(OCCOCCOCCOCCOc3cc(N4C5CCC4CN(c4cc(-c6ccccc6O)nnc4N)C5)ccn3)no2)C(C)C)cc1` [compound 29, (2S,4R)-1-[(2S)-2-(3-[[1-(4-[3-[3-amino-6-(2-hydroxyphenyl)pyridazin-4-yl]-3,8-diazabicyclo[3.2.1]octan-8-yl]pyridin-2-yl)-1,4,7,10-tetraoxadodecan-12-yl]oxy]-1,2-oxazol-5-yl)-3-methylbutanoyl]-4-hydroxy-N-[[4-(4-methyl-1,3-thiazol-5-yl)phenyl]methyl]pyrrolidine-2-carboxamide], the DC50 [3] is reported as 10 to 30 nM and the Dmax (BRM degradation, SW1573 cells, when tested at the top concentration of between 0.3 and 10 μM, read-out: Dmax (%) (% degraded)) is reported as over 75%.
`Cc1nccn1-c1ccc([C@H](C)NC(=O)[C@@H]2C[C@@H](O)CN2C(=O)[C@@H](c2cc(N3CCN(C[C@H]4C[C@H](Oc5cc(N6C7CCC6CN(c6cc(-c8ccccc8O)nnc6N)C7)ccn5)C4)CC3)no2)C(C)C)cc1` [compound 576, (2S,4R)-1-((2R)-2-(3-(4-(((1r,3R)-3-((4-(3-(3-amino-6-(2-hydroxyphenyl)pyridazin-4-yl)-3,8-diazabicyclo[3.2.1]octan-8-yl)pyridin-2-yl)oxy)cyclobutyl)methyl)piperazin-1-yl)isoxazol-5-yl)-3-methylbutanoyl)-4-hydroxy-N-((S)-1-(4-(2-methyl-1H-imidazol-1-yl)phenyl)ethyl)pyrrolidine-2-carboxamide] showed a Dmax [4] of over 75% and a DC50 [5] of under 2.5 nM.
`Cc1cc([C@@H](C(=O)N2C[C@H](O)C[C@H]2C(=O)N[C@@H](C)c2ccc(-c3scnc3C)cc2)[C@@H](C)COCCOc2cc(N3C4CCC3CN(c3cc(-c5ccccc5O)nnc3N)C4)ccn2)on1` [compound 301, (2S,4R)-1-((2S,3R)-4-(2-((4-(3-(3-amino-6-(2-hydroxyphenyl)pyridazin-4-yl)-3,8-diazabicyclo[3.2.1]octan-8-yl)pyridin-2-yl)oxy)ethoxy)-3-methyl-2-(3-methylisoxazol-5-yl)butanoyl)-4-hydroxy-N-((S)-1-(4-(4-methylthiazol-5-yl)phenyl)ethyl)pyrrolidine-2-carboxamide] gave a DC50 [3] of 2.5 to 10 nM and a Dmax [6] of over 75%.
Work on `Cc1nccn1-c1ccc([C@H](C)NC(=O)[C@@H]2C[C@@H](O)CN2C(=O)[C@@H](c2cc(N3CCC(O[C@H]4C[C@H](Oc5cc(N6C7CCC6CN(c6cc(-c8ccccc8O)nnc6N)C7)ccn5)C4)CC3)no2)C(C)C)cc1` [compound 601, (2S,4R)-1-((2R)-2-(3-(4-((1r,3R)-3-((4-(3-(3-amino-6-(2-hydroxyphenyl)pyridazin-4-yl)-3,8-diazabicyclo[3.2.1]octan-8-yl)pyridin-2-yl)oxy)cyclobutoxy)piperidin-1-yl)isoxazol-5-yl)-3-methylbutanoyl)-4-hydroxy-N-((S)-1-(4-(2-methyl-1H-imidazol-1-yl)phenyl)ethyl)pyrrolidine-2-carboxamide] yielded a Dmax [4] of over 75% and a DC50 [5] of under 2.5 nM.
Compound `Cc1ncsc1-c1ccc([C@H](C)NC(=O)[C@@H]2C[C@@H](O)CN2C(=O)[C@@H](c2cc(OCCN3CCC(O[C@H]4C[C@H](OCCn5cc(-c6cc(-c7ccccc7O)nnc6N)cn5)C4)CC3)no2)C(C)C)cc1` [compound 189, (2S,4R)-1-((R)-2-(3-(2-(4-((1r,3R)-3-(2-(4-(3-amino-6-(2-hydroxyphenyl)pyridazin-4-yl)-1H-pyrazol-1-yl)ethoxy)cyclobutoxy)piperidin-1-yl)ethoxy)isoxazol-5-yl)-3-methylbutanoyl)-4-hydroxy-N-((S)-1-(4-(4-methylthiazol-5-yl)phenyl)ethyl)pyrrolidine-2-carboxamide] has a DC50 [3] of under 2.5 nM and a Dmax [6] of over 75%.
For `Cc1ncsc1-c1ccc([C@H](C)NC(=O)[C@@H]2C[C@@H](O)CN2C(=O)[C@H](c2cc(OCCOc3ccc(C(C)n4cc(-c5cc(-c6ccccc6O)nnc5N)cn4)cn3)no2)C(C)C)cc1` (stereo partly drawn) [compound 163, (2S,4R)-1-((2S)-2-(3-(2-((5-(1-(4-(3-amino-6-(2-hydroxyphenyl)pyridazin-4-yl)-1H-pyrazol-1-yl)ethyl)pyridin-2-yl)oxy)ethoxy)isoxazol-5-yl)-3-methylbutanoyl)-4-hydroxy-N-((S)-1-(4-(4-methylthiazol-5-yl)phenyl)ethyl)pyrrolidine-2-carboxamide], the DC50 [3] was under 2.5 nM and the Dmax [6] was over 75%.
`Cc1ncsc1-c1ccc(C(CCCP(=O)(O)O)NC(=O)[C@@H]2C[C@@H](O)CN2C(=O)[C@H](c2cc(OCCN3CCC(O[C@H]4C[C@H](Oc5cc(N6C7CCC6CN(c6cc(-c8ccccc8O)nnc6N)C7)ccn5)C4)CC3)no2)C(C)C)cc1` (stereo partly drawn) [compound 701, (4-((2S,4R)-1-((2S)-2-(3-(2-(4-((1r,3S)-3-((4-(3-(3-amino-6-(2-hydroxyphenyl)pyridazin-4-yl)-3,8-diazabicyclo[3.2.1]octan-8-yl)pyridin-2-yl)oxy)cyclobutoxy)piperidin-1-yl)ethoxy)isoxazol-5-yl)-3-methylbutanoyl)-4-hydroxypyrrolidine-2-carboxamido)-4-(4-(4-methylthiazol-5-yl)phenyl)butyl)phosphonic acid] gave a DC50 (BRM degradation, SW1573 cells) of over 30 nM.
For `Cc1ncsc1-c1ccc([C@H](C)NC(=O)[C@@H]2C[C@@H](O)CN2C(=O)[C@H](c2cc(OCCOCCOCCCCN3CC4(C3)CN(c3cc(-c5ccccc5O)nnc3N)C4)no2)C(C)C)cc1` [compound 65, (2S,4R)-1-((S)-2-(3-(2-(2-(4-(6-(3-amino-6-(2-hydroxyphenyl)pyridazin-4-yl)-2,6-diazaspiro[3.3]heptan-2-yl)butoxy)ethoxy)ethoxy)isoxazol-5-yl)-3-methylbutanoyl)-4-hydroxy-N-((S)-1-(4-(4-methylthiazol-5-yl)phenyl)ethyl)pyrrolidine-2-carboxamide], the DC50 [3] was over 30 nM.
Work on `Cc1ncsc1-c1ccc([C@H](C)NC(=O)[C@@H]2C[C@@H](O)CN2C(=O)[C@@H](c2cc(OCCC3CCN([C@H]4C[C@H](CN5CCOC6(CCN(c7cc(-c8ccccc8O)nnc7N)CC6)C5)C4)CC3)no2)C(C)C)cc1` [compound 445, (2S,4R)-1-((R)-2-(3-(2-(1-((1r,3R)-3-((9-(3-amino-6-(2-hydroxyphenyl)pyridazin-4-yl)-1-oxa-4,9-diazaspiro[5.5]undecan-4-yl)methyl)cyclobutyl)piperidin-4-yl)ethoxy)isoxazol-5-yl)-3-methylbutanoyl)-4-hydroxy-N-((S)-1-(4-(4-methylthiazol-5-yl)phenyl)ethyl)pyrrolidine-2-carboxamide] yielded a Dmax [1] of over 75% and a DC50 (degradation of BRM, read-out: BRM DC50) of under 2.5 nM.
`CC(C)C(C(=O)N1C[C@H](O)C[C@H]1C(=O)N[C@@H](C)c1ccc(-c2scnc2C#CCN(C)C)cc1)c1cc(OCCN2CCN(CCOc3cc(N4C5CCC4CN(c4cc(-c6ccccc6O)nnc4N)C5)ccn3)CC2)no1` (stereo partly drawn) [compound 172, (2S,4R)-1-(2-(3-(2-(4-(2-((4-(3-(3-amino-6-(2-hydroxyphenyl)pyridazin-4-yl)-3,8-diazabicyclo[3.2.1]octan-8-yl)pyridin-2-yl)oxy)ethyl)piperazin-1-yl)ethoxy)isoxazol-5-yl)-3-methylbutanoyl)-N-((S)-1-(4-(4-(3-(dimethylamino)prop-1-yn-1-yl)thiazol-5-yl)phenyl)ethyl)-4-hydroxypyrrolidine-2-carboxamide] gave a DC50 [3] of under 2.5 nM and a Dmax [6] of over 75%.
Work on `Cc1ncsc1-c1ccc([C@H](C)NC(=O)[C@@H]2C[C@@H](O)CN2C(=O)[C@@H](c2cc(OCCN[C@H]3CC[C@@H](O[C@H]4C[C@@H](Oc5cc(N6C7CCC6CN(c6cc(-c8ccccc8O)nnc6N)C7)ccn5)C4)CC3)no2)C(C)C)cn1` [compound 388, (2S,4R)-1-((2R)-2-(3-(2-(((1S,4S)-4-((1r,3S)-3-((4-(3-(3-amino-6-(2-hydroxyphenyl)pyridazin-4-yl)-3,8-diazabicyclo[3.2.1]octan-8-yl)pyridin-2-yl)oxy)cyclobutoxy)cyclohexyl)amino)ethoxy)isoxazol-5-yl)-3-methylbutanoyl)-4-hydroxy-N-((S)-1-(6-(4-methylthiazol-5-yl)pyridin-3-yl)ethyl)pyrrolidine-2-carboxamide] yielded a Dmax [1] of over 75% and a DC50 [2] of 2.5 to 10 nM.
